The values that follow come from the supplement of paper PMC4862054.

Experiment [1] relates to BT-549. As to conditions: 72 h. The method, boiled down: (§1)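 Two sequential readouts followed a 72 h incubation of breast cancer cell lines with compound at 5 concentrations in 10-fold steps over a compound-specific 10,000-fold range: CellTox Green fluorescence (485/520 nm) for cell death, then CellTiter-Glo luminescence, after 10 min at room temperature, for viability. Each plate was normalised to 0.1 % DMSO and a positive kill control. Dose-response curves were fitted for EC50, censored at the top concentration.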

Experiment [2] concerns CAL-51. As to conditions: 72 h. In short, it runs like this:
as §1

Experiment [3] has as its system HCC1937. The settings on record: 72 h. In short, it runs like this: as §1
Experiment [4] relates to MDA-MB-436. As to conditions: 72 h. The method, boiled down:
as §1

Experiment [5] concerns CAL-148. The settings on record: 72 h. The method, boiled down:
as §1

Experiment [6] has as its system SK-BR-3. As to conditions: 72 h. The method, boiled down:
as §1

Experiment [7] has as its system HCC1143. The settings on record: 72 h. In short, it runs like this:
as §1

Experiment [8] relates to MDA-MB-453. Kind of experiment: normalised viability (% of control), CellTiter-Blue; higher = more viable cells (about 100 = DMSO control). As to conditions: incubation time: 72 h. As for the experimental part: (§2)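 DSRT, CellTiter-Blue viability, 72 h incubation. Signal is normalised to DMSO and benzethonium chloride controls. Value is the normalised response at dose 9.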
On the technique in general: The colour change of resazurin is a common sign of viable cells or microbes.

Experiment [9] has as its system DU-4475. Described as above. As to conditions: incubation time: 72 h. The procedure:
as §2

Experiment [10] concerns CAL-85-1. Described as above. As to conditions: incubation time: 72 h. The procedure:
as §2

Experiment [11] deals with CAL-51. The experiment is described as above. As to conditions: incubation time: 72 h. As for the experimental part:
as §2

Experiment [12] deals with CAL-148. The description is as above. The settings on record: incubation time: 72 h. As for the experimental part: as §2
The test system of experiment [13] is HDQ-P1. The description is as above. The settings on record: incubation time: 72 h. As for the experimental part:
as §2

Experiment [14] relates to Hs578T. Nature of the experiment: normalised response (% of control), CellTiter-Glo; higher = more viable cells (100 = DMSO, 0 = benzethonium chloride kill control). As to conditions: incubation time: 72 h. In short, it runs like this: (§3)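 The table gives the normalised signal for a single concentration in each entry. Breast cancer cell lines were seeded (20 µl suspension) into 384-well plates holding compound at 5 concentrations in 10-fold steps over a compound-specific 10,000-fold range and incubated 72 h, then read for CellTox Green fluorescence (485/520 nm) and CellTiter-Glo luminescence. Normalisation on each plate used 0.1 % DMSO (100) and a positive kill control (0).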
(In general: Cellular ATP, detected with luciferase, serves as a proxy for viable cell number.)

Experiment [15] has as its system MDA-MB-453. The experiment is described as above. As to conditions: incubation time: 72 h. The method, boiled down: as §3
Experiment [16] has as its system DU-4475. Described as above. As to conditions: incubation time: 72 h. In short, it runs like this:
as §3

Experiment [17] concerns BT-549. The description is as above. The settings on record: incubation time: 72 h. In short, it runs like this: as §3
Experiment [18] deals with BT-474. Described as above. The settings on record: incubation time: 72 h. In short, it runs like this:
as §3

Experiment [19] deals with CAL-51. The description is as above. The settings on record: incubation time: 72 h. In short, it runs like this: as §3
Experiment [20] relates to MFM-223. The experiment is described as above. As to conditions: incubation time: 72 h. The method, boiled down: as §3
Experiment [21] deals with HCC1937. The description is as above. The settings on record: incubation time: 72 h. In short, it runs like this: as §3
The test system of experiment [22] is HCC1599. The description is as above. As to conditions: incubation time: 72 h. In short, it runs like this: as §3
The test system of experiment [23] is MDA-MB-468. The description is as above. The settings on record: incubation time: 72 h. In short, it runs like this: as §3
Experiment [24] relates to HDQ-P1. The experiment is described as above. As to conditions: incubation time: 72 h. In short, it runs like this:
as §3

The subject of experiment [25] is SK-BR-3. Described as above. As to conditions: incubation time: 72 h. The method, boiled down:
as §3

Experiment [26] deals with BT-474. As to conditions: 72 h. In short, it runs like this: as §1
Experiment [27] has as its system MDA-MB-468. The settings on record: 72 h. In short, it runs like this:
as §1

Experiment [28] deals with DU-4475. As to conditions: 72 h. In short, it runs like this: as §1

Take `Cc1c(N)nc([C@H](CC(N)=O)NC[C@H](N)C(N)=O)nc1C(=O)N[C@H](C(=O)N[C@H](C)[C@@H](O)[C@H](C)C(=O)N[C@H](C(=O)NCCc1nc(-c2nc(C(=O)NCCC[S+](C)C)cs2)cs1)[C@@H](C)O)[C@@H](OC1OC(CO)C(O)C(O)C1OC1OC(CO)C(O)C(OC(N)=O)C1O)c1cnc[nH]1` (stereo partly drawn) [Bleomycin]: the “EC50, CellTiter-Glo” value in experiment [1] turned out to be 2360 nM; in experiment [2], 49.9 nM; in experiment [3] it was 8710 nM; in experiment [4], 5920 nM; in experiment [5], 911 nM; in experiment [6], 1830 nM. In addition, the “EC50, CellTiter-Glo” value in experiment [7] came out at 9670 nM.

As for `Cc1cc2c(F)c(Oc3ncnn4cc(OC[C@@H](C)O)c(C)c34)ccc2[nH]1` [Brivanib], the “EC50, CellTiter-Glo” value in experiment [2] came out at 176 nM.

Consider `CCCCCOC(=O)Nc1nc(=O)n([C@@H]2O[C@H](C)[C@@H](O)[C@H]2O)cc1F` [Capecitabine], for which the “EC50, CellTiter-Glo” value in [4] was found to be 5970 nM.

Turning to `C[C@@H]1C[C@H]2[C@@H]3CCC4=CC(=O)C=C[C@]4(C)[C@@]3(F)[C@@H](O)C[C@]2(C)[C@@]1(O)C(=O)CO` [Dexamethasone] (10000 nM), the normalised viability turned out to be 75.3% in experiment [8]; 104% in [9]; 105% in [10]; 97.9% in [11]; 109% in experiment [12]; 125% in experiment [13]. Besides, the normalised response in experiment [14] is 105%; in experiment [15], 78.7%; in [16], 101%; in experiment [17] it was 96.7%; in experiment [18] it was 137%; in experiment [19] it was 132%. In addition, the normalised response worked out at 94.2% in [20]; 98.4% in [21]; 83.5% in experiment [22]; 95.2% in experiment [23]; 82% in experiment [24]; 86.9% in experiment [25].

With `Cc1c(C(=O)Nc2ccc(N3C[C@@H](C)O[C@@H](C)C3)nc2)cccc1-c1ccc(OC(F)(F)F)cc1` [Erismodegib], the “EC50, CellTiter-Glo” value in [26] was 722 nM; in [2], 41 nM; in experiment [4], 636 nM; in experiment [27], 6610 nM.

With `CC(C)C(=O)Nc1ccc([N+](=O)[O-])c(C(F)(F)F)c1` [Flutamide], the “EC50, CellTiter-Glo” value in experiment [2] was above 10000 nM.

As for `CC(C)C(=O)Nc1ccc([N+](=O)[O-])c(C(F)(F)F)c1` [Flutamide] (10000 nM), the normalised viability in [8] is 91.7%; in [9], 87.4%; in [10] it was 84.8%; in experiment [11] it was 98.3%; in experiment [12], 106%; in experiment [13], 124%. In addition, the normalised response in [14] was determined as 101%; in [15] it was 96.1%; in experiment [16], 97.7%; in [17], 94.1%; in [18] it was 95.6%; in experiment [19], 89.6%. Besides, the normalised response in experiment [20] is 90.9%; in experiment [21], 92.7%; in experiment [22], 90%; in [23], 93.9%; in experiment [24], 92.4%; in [25], 105%.

Take `COc1cc2c(Oc3ccc(NC(=O)C4(C(=O)Nc5ccc(F)cc5)CC4)cc3F)ccnc2cc1OCCCN1CCOCC1` [Foretinib] (1000 nM): the normalised viability in experiment [8] is 51.8%; in experiment [9], 29.4%; in [10], 66.8%; in [11] it was 24.8%; in experiment [12], 25.8%; in [13], 45.4%. Moreover, the normalised response in experiment [14] was 76%; in experiment [15], 125%; in experiment [16], 80.8%; in experiment [17], 75.5%; in experiment [18], 73%; in experiment [19] it was 67.3%. The normalised response was determined as 44.6% in experiment [20]; 72.5% in [21]; 104% in experiment [22]; 34.1% in [23]; 66.1% in experiment [24]; 98% in experiment [25].

On to `NC(=O)NO` [Hydroxyurea], for which the “EC50, CellTiter-Glo” value in [1] was found to be 14000 nM; in experiment [2] it was 1290 nM.

Take `NC(=O)NO` [Hydroxyurea] (100000 nM): the normalised viability in experiment [8] was 91.5%; in [9], 121%; in experiment [10] it was 90%; in experiment [11] it was 100%; in experiment [12], 119%; in experiment [13], 123%. The normalised response in [14] is 104%; in experiment [15] it was 106%; in [16], 102%; in [17], 77.4%; in experiment [18] it was 97.2%; in experiment [19], 29%. For the same compound, the normalised response is 104% in experiment [20]; 95% in experiment [21]; 96.4% in [22]; 102% in [23]; 97% in experiment [24]; 110% in experiment [25].

Consider `O=NN(CCCl)C(=O)NC1CCCCC1` [Lomustine] (10000 nM), for which the normalised viability in experiment [8] stood at 47.5%; in experiment [9], 91.5%; in [10] it was 77.4%; in [11], 104%; in experiment [12], 99.1%; in experiment [13] it was 111%. The normalised response was determined as 103% in [14]; 107% in experiment [15]; 99.7% in experiment [16]; 104% in experiment [17]; 97.2% in experiment [18]; 110% in experiment [19]. The normalised response was found to be 106% in [20]; 99% in experiment [21]; 104% in [22]; 101% in experiment [23]; 99.5% in experiment [24]; 101% in experiment [25].

Turning to `O=C(O)CC[C@H]1CC[C@@](c2cc(F)ccc2F)(S(=O)(=O)c2ccc(Cl)cc2)CC1` [MK-0752] (1000 nM), the normalised viability in experiment [8] was 117%; in experiment [9], 110%; in experiment [10], 104%; in experiment [11], 100%; in [12] it was 119%; in experiment [13], 126%. For the same compound, the normalised response in [14] worked out at 98.5%; in experiment [15], 108%; in experiment [16], 102%; in experiment [17], 93%; in experiment [18] it was 95.4%; in experiment [19] it was 126%. In addition, the normalised response came out at 100% in [20]; 95.1% in experiment [21]; 89% in experiment [22]; 94% in experiment [23]; 95.5% in [24]; 117% in experiment [25].

`NC(=O)c1cccc2cn(-c3ccc([C@@H]4CCCNC4)cc3)nc12` [MK-4827]: the “EC50, CellTiter-Glo” value in experiment [28] was determined as 1090 nM; in [4] it was 601 nM; in experiment [5], 2630 nM; in experiment [27], 9350 nM.
